{"source": "patent US5502035A", "about": "“N-terminus modified analogs of LHRH” (Tap Holdings Inc., priority 1994, dated 1996)", "note": "Non-standard residues stand in square brackets, D forms with d. Residues, ends and D or L forms follow the SMILES beside them. Groups on a side chain read outwards from the residue. *: point of attachment. dAla(benzothien-2-yl) = N[C@H](Cc1cc2ccccc2s1)C(=O)O; Shikimoyl = O=C(C1=C[C@@H](O)[C@@H](O)[C@H](O)C1)*; dPhe(4-Cl) = N[C@H](Cc1ccc(Cl)cc1)C(=O)O; d1Nal = N[C@H](Cc1cccc2ccccc12)C(=O)O; d2Nal = N[C@H](Cc1ccc2ccccc2c1)C(=O)O; Lys(iPr) = CC(C)NCCCC[C@H](N)C(=O)O; NMeY = CN[C@@H](Cc1ccc(O)cc1)C(=O)O; hArg = N=C(N)NCCCC[C@H](N)C(=O)O; d3Pal = N[C@H](Cc1cccnc1)C(=O)O; Isonicotinoyl = O=C(c1ccncc1)*; Nicotinoyl = O=C(c1cccnc1)*; 2Furoyl = O=C(c1ccco1)*; azaGly = NNC(=O)O; βAla = NCCC(=O)O; Sar = CNCC(=O)O"}
{"molecular_target": "T1, LHRH (Rattus norvegicus, UniProt P30969)", "T1 construct": "endogenous in cells; host or cells: rat pituitary cells (own knowledge of the cited Haviv 1989 method)", "T1 sequence (P30969 1-327)": "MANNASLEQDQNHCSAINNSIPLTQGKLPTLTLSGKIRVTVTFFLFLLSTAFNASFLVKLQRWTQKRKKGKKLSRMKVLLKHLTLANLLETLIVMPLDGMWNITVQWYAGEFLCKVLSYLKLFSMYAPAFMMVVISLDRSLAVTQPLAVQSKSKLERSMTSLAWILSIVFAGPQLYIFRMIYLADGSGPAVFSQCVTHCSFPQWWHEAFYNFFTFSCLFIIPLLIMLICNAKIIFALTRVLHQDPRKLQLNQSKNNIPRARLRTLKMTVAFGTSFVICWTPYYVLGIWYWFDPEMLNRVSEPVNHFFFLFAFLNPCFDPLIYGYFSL", "assay": "in vitro test for LHRH antagonist potency (pA2)", "type": "cell-based", "details": "negative logarithm of the antagonist concentration required to shift the response curve produced by the agonist leuprolide to two-fold higher concentration", "procedure,_shortened": "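Antagonism read against the agonist leuprolide on rat LHRH receptor; value is pA2, the −log of antagonist concentration that doubles the agonist concentration needed for the same response.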", "units": {"Kb": "nM"}}
{"compound": "CC(C)C[C@H](NC(=O)[C@@H](CCCCNC(=O)C1=C[C@@H](O)[C@@H](O)[C@H](O)C1)NC(=O)[C@H](Cc1ccc(O)cc1)N(C)C(=O)[C@H](CO)NC(=O)[C@@H](Cc1cccnc1)NC(=O)[C@@H](Cc1ccc(Cl)cc1)NC(=O)[C@@H](Cc1ccc2ccccc2c1)NC(=O)CCNC(=O)C1=C[C@@H](O)[C@@H](O)[C@H](O)C1)C(=O)N[C@@H](CCCNC(=N)N)C(=O)N1CCC[C@H]1C(=O)N[C@H](C)C(N)=O", "note": "[Example 27e, N-Shikimyl-3-Aminopropionyl-D2Nal-D4ClPhe-D3Pal-Ser-NMeTyr-DLys(Shik)-Leu- Arg-Pro-DAlaNH2] ({Shikimoyl-βAla}-[d2Nal][dPhe(4-Cl)][d3Pal]S[NMeY][dK](Shikimoyl)LRP[dA]-NH2)", "Kb": 0.0347}
{"compound": "CC(C)C[C@H](NC(=O)[C@@H](CCCCNC(=O)C1=C[C@@H](O)[C@@H](O)[C@H](O)C1)NC(=O)[C@H](Cc1ccc(O)cc1)N(C)C(=O)[C@H](CO)NC(=O)[C@@H](Cc1cccnc1)NC(=O)[C@@H](Cc1ccc(Cl)cc1)NC(=O)[C@@H](Cc1ccc2ccccc2c1)NC(=O)CCNC(=O)c1cccnc1)C(=O)N[C@@H](CCCCNC(=N)N)C(=O)N1CCC[C@H]1C(=O)N[C@H](C)C(N)=O", "note": "[Example 28, N-Nicotinyl-3Aminopropionyl-D2Nal-D4ClPhe-D3Pal-Ser-NMeTyr-DLys(Shik)-Leu-Harg-Pro-DAlaNH2] ({Nicotinoyl-βAla}-[d2Nal][dPhe(4-Cl)][d3Pal]S[NMeY][dK](Shikimoyl)L[hArg]P[dA]-NH2)", "Kb": 0.00977}
{"compound": "CC(C)C[C@H](NC(=O)[C@@H](CCCCNC(=O)CNC(=O)c1cccnc1)NC(=O)[C@H](Cc1ccc(O)cc1)N(C)C(=O)[C@H](CO)NC(=O)[C@@H](Cc1cccnc1)NC(=O)[C@@H](Cc1ccc(Cl)cc1)NC(=O)[C@@H](Cc1ccc2ccccc2c1)NC(=O)C1=C[C@@H](O)[C@@H](O)[C@H](O)C1)C(=O)N[C@@H](CCCCNC(C)C)C(=O)N1CCC[C@H]1C(=O)N[C@H](C)C(N)=O", "note": "[Example 29, N-Shikimyl-D2Nal-D4ClPhe-D3Pal-Ser-NMeTyr-DLys(GlyNic)-Leu-Lys(Isp)-Pro-DAlaNH2] (Shikimoyl-[d2Nal][dPhe(4-Cl)][d3Pal]S[NMeY][dK]([Gly-Nicotinoyl])L[Lys(iPr)]P[dA]-NH2)", "Kb": 0.0257}
{"compound": "CC(C)C[C@H](NC(=O)[C@@H](CCCCNC(=O)NNC(=O)c1cccnc1)NC(=O)[C@H](Cc1ccc(O)cc1)N(C)C(=O)[C@H](CO)NC(=O)[C@@H](Cc1cccnc1)NC(=O)[C@@H](Cc1ccc(Cl)cc1)NC(=O)[C@@H](Cc1ccc2ccccc2c1)NC(=O)C1=C[C@@H](O)[C@@H](O)[C@H](O)C1)C(=O)N[C@@H](CCCCNC(C)C)C(=O)N1CCC[C@H]1C(=O)N[C@H](C)C(N)=O", "note": "[Example 30b, N-Shik-D2Nal-D4ClPhe-D3Pal-Ser-NMeTyr-DLys(Azagly-Nic)-Leu-Lys(Isp)-Pro-DAlaNH2] (Shikimoyl-[d2Nal][dPhe(4-Cl)][d3Pal]S[NMeY][dK]([azaGly-Nicotinoyl])L[Lys(iPr)]P[dA]-NH2)", "Kb": 0.0295}
{"compound": "CC(C)C[C@H](NC(=O)[C@@H](CCCCNC(=O)NNC(=O)c1ccco1)NC(=O)[C@H](Cc1ccc(O)cc1)N(C)C(=O)[C@H](CO)NC(=O)[C@@H](Cc1cccnc1)NC(=O)[C@@H](Cc1ccc(Cl)cc1)NC(=O)[C@@H](Cc1ccc2ccccc2c1)NC(=O)C1=C[C@@H](O)[C@@H](O)[C@H](O)C1)C(=O)N[C@@H](CCCCNC(C)C)C(=O)N1CCC[C@H]1C(=O)N[C@H](C)C(N)=O", "note": "[Example 30c, N-Shik-D2Nal-D4ClPhe-D3Pal-Ser-NMeTyr-DLys(Azagly-2Fur)-Leu-Lys(Isp)-Pro-DAlaNH2] (Shikimoyl-[d2Nal][dPhe(4-Cl)][d3Pal]S[NMeY][dK]([azaGly-2Furoyl])L[Lys(iPr)]P[dA]-NH2)", "Kb": 0.038}
{"compound": "CC(C)C[C@H](NC(=O)[C@@H](CCCCNC(=O)NNC(=O)c1cccnc1)NC(=O)[C@H](Cc1ccc(O)cc1)N(C)C(=O)[C@H](CO)NC(=O)[C@@H](Cc1cccnc1)NC(=O)[C@@H](Cc1ccc(Cl)cc1)NC(=O)[C@@H](Cc1ccc2ccccc2c1)NC(=O)NNC(=O)c1cccnc1)C(=O)N[C@@H](CCCCNC(C)C)C(=O)N1CCC[C@H]1C(=O)N[C@H](C)C(N)=O", "note": "[Example 31, N-Nicotinyl-Azagly-D2Nal-D4ClPhe-D3Pal-Ser-NMeTyr-DLys(Azagly-Nic)-Leu-Lys(Isp)-Pro-DAlaNH2] (Nicotinoyl-[azaGly][d2Nal][dPhe(4-Cl)][d3Pal]S[NMeY][dK]([azaGly-Nicotinoyl])L[Lys(iPr)]P[dA]-NH2)", "Kb": 0.0195}
{"compound": "CC(C)C[C@H](NC(=O)[C@@H](CCCCNC(=O)c1cccnc1)NC(=O)[C@H](Cc1ccc(O)cc1)N(C)C(=O)[C@H](CO)NC(=O)[C@@H](Cc1cc2ccccc2s1)NC(=O)[C@@H](Cc1ccc(Cl)cc1)NC(=O)NNC(=O)c1cccnc1)C(=O)N[C@@H](CCCCNC(C)C)C(=O)N1CCC[C@H]1C(=O)N[C@H](C)C(N)=O", "note": "[Example 32, N-Nicotinyl-Azagly-D4ClPhe-DBal-Ser-NMeTyr-DLys(Nic)-Leu-Lys(Isp)-Pro-DAlaNH2] (Nicotinoyl-[azaGly][dPhe(4-Cl)][dAla(benzothien-2-yl)]S[NMeY][dK](Nicotinoyl)L[Lys(iPr)]P[dA]-NH2)", "Kb": 0.0141}
{"compound": "CC(C)C[C@H](NC(=O)[C@@H](CCCCNC(=O)c1cccnc1)NC(=O)[C@H](Cc1ccc(O)cc1)N(C)C(=O)[C@H](CO)NC(=O)[C@@H](Cc1cc2ccccc2s1)NC(=O)[C@@H](Cc1ccc(Cl)cc1)NC(=O)NNC(=O)c1ccco1)C(=O)N[C@@H](CCCCNC(C)C)C(=O)N1CCC[C@H]1C(=O)N[C@H](C)C(N)=O", "note": "[Example 33a, N-(2-Furoyl)-Azagly-D4ClPhe-DBal-Ser-NMeTyr-DLys(Nic)-Leu-Lys(Isp)-Pro-DAlaNH2] (2Furoyl-[azaGly][dPhe(4-Cl)][dAla(benzothien-2-yl)]S[NMeY][dK](Nicotinoyl)L[Lys(iPr)]P[dA]-NH2)", "Kb": 0.00631}
{"compound": "CC(C)C[C@H](NC(=O)[C@@H](CCCCNC(=O)c1cccnc1)NC(=O)[C@H](Cc1ccc(O)cc1)N(C)C(=O)[C@H](CO)NC(=O)[C@@H](Cc1cc2ccccc2s1)NC(=O)[C@@H](Cc1ccc(Cl)cc1)NC(=O)NNC(=O)c1ccncc1)C(=O)N[C@@H](CCCCNC(C)C)C(=O)N1CCC[C@H]1C(=O)N[C@H](C)C(N)=O", "note": "[Example 33b, N-Isonicotinyl-Azagly-D4ClPhe-DBal-Ser-NMeTyr-DLys(Nic)-Leu-Lys(Isp)-Pro-DAlaNH2] (Isonicotinoyl-[azaGly][dPhe(4-Cl)][dAla(benzothien-2-yl)]S[NMeY][dK](Nicotinoyl)L[Lys(iPr)]P[dA]-NH2)", "Kb": 0.02}
{"compound": "CC(C)C[C@H](NC(=O)[C@@H](CCCCNC(=O)c1cccnc1)NC(=O)[C@H](Cc1ccc(O)cc1)N(C)C(=O)[C@H](CO)NC(=O)[C@@H](Cc1cccc2ccccc12)NC(=O)[C@@H](Cc1ccc(Cl)cc1)NC(=O)NNC(=O)c1cccnc1)C(=O)N[C@@H](CCCCNC(C)C)C(=O)N1CCC[C@H]1C(=O)N[C@H](C)C(N)=O", "note": "[Example 33c, N-Nicotinyl-Azagly-D4ClPhe-D1Nal-Ser-NMeTyr-DLys(Nic)-Leu-Lys(Isp)-Pro-DAlaNH2] (Nicotinoyl-[azaGly][dPhe(4-Cl)][d1Nal]S[NMeY][dK](Nicotinoyl)L[Lys(iPr)]P[dA]-NH2)", "Kb": 0.00501}
{"compound": "CC(C)C[C@H](NC(=O)[C@@H](CCCCNC(=O)c1cccnc1)NC(=O)[C@H](Cc1ccc(O)cc1)N(C)C(=O)[C@H](CO)NC(=O)[C@@H](Cc1cccc2ccccc12)NC(=O)[C@@H](Cc1ccc(Cl)cc1)NC(=O)CN(C)C(=O)CNC(=O)c1cccnc1)C(=O)N[C@@H](CCCCNC(C)C)C(=O)N1CCC[C@H]1C(=O)N[C@H](C)C(N)=O", "note": "[Example 35a, Nic-Gly-Sar-D4ClPhe-D1Nal-Ser-NMeTyr-DLys(Nic)-Leu-Lys(Isp)-Pro-DAlaNH2] (Nicotinoyl-G[Sar][dPhe(4-Cl)][d1Nal]S[NMeY][dK](Nicotinoyl)L[Lys(iPr)]P[dA]-NH2)", "Kb": 0.1}
{"compound": "CC(C)C[C@H](NC(=O)[C@@H](CCCCNC(=O)c1cccnc1)NC(=O)[C@H](Cc1ccc(O)cc1)N(C)C(=O)[C@H](CO)NC(=O)[C@@H](Cc1cc2ccccc2s1)NC(=O)[C@@H](Cc1ccc(Cl)cc1)NC(=O)CN(C)C(=O)CNC(=O)c1cccnc1)C(=O)N[C@@H](CCCCNC(C)C)C(=O)N1CCC[C@H]1C(=O)N[C@H](C)C(N)=O", "note": "[Example 35b, Nic-Gly-Sar-D4ClPhe-DBal-Ser-NMeTyr-DLys(Nic)-Leu-Lys(Isp)-Pro-DAlaNH2] (Nicotinoyl-G[Sar][dPhe(4-Cl)][dAla(benzothien-2-yl)]S[NMeY][dK](Nicotinoyl)L[Lys(iPr)]P[dA]-NH2)", "Kb": 0.0794}
{"compound": "CC(C)C[C@H](NC(=O)[C@@H](CCCCNC(=O)c1cccnc1)NC(=O)[C@H](Cc1ccc(O)cc1)N(C)C(=O)[C@H](CO)NC(=O)[C@@H](Cc1cc2ccccc2s1)NC(=O)[C@@H](Cc1ccc(Cl)cc1)NC(=O)[C@@H](Cc1ccc2ccccc2c1)NC(=O)CCNC(=O)c1cccnc1)C(=O)N[C@@H](CCCCNC(C)C)C(=O)N1CCC[C@H]1C(=O)N[C@H](C)C(N)=O", "note": "[Example 36, N-Nicotinyl-3-Aminopropionyl-D2Nal-D4ClPhe-DBal-Ser-NMeTyr-DLys(N-epsilon-Nicotinyl) -Leu-Lys(N-epsilon-Isopropyl)-Pro-DAlaNH2] ({Nicotinoyl-βAla}-[d2Nal][dPhe(4-Cl)][dAla(benzothien-2-yl)]S[NMeY][dK](Nicotinoyl)L[Lys(iPr)]P[dA]-NH2)", "Kb": 0.0224}
